Numbers after ± are expanded uncertainties.
Experiment: molar heat capacity at constant pressure; xn = mol fraction of the nth substance listed
Conditions: Liquid, Flow calorimetry

CO [methanol] + O
Conditions	molar heat capacity at constant pressure [J/K/mol]
329.01 K, 5000 kPa, x1 = 0.9	88.91 ± 0.55
330.62 K, 10000 kPa, x1 = 0.8	89.87 ± 0.56
330.92 K, 5000 kPa, x1 = 0.8	90.19 ± 0.56
330.98 K, 2000 kPa, x1 = 0.8	89.81 ± 0.56
331.74 K, 5000 kPa, x1 = 0.1	82.22 ± 0.5
332.15 K, 5000 kPa, x1 = 0.7	90.68 ± 0.56
333.12 K, 10000 kPa, x1 = 0.6	90 ± 0.56
333.19 K, 5000 kPa, x1 = 0.6	90.87 ± 0.56
333.43 K, 5000 kPa, x1 = 0.2	86.68 ± 0.54
333.48 K, 10000 kPa, x1 = 0.2	86.18 ± 0.54
333.52 K, 2000 kPa, x1 = 0.6	90.9 ± 0.56
333.71 K, 2000 kPa, x1 = 0.2	86.86 ± 0.54
333.89 K, 5000 kPa, x1 = 0.5	90.43 ± 0.55
333.95 K, 5000 kPa, x1 = 0.4	89.97 ± 0.57
334 K, 5000 kPa, x1 = 0.3	88.54 ± 0.56
334.08 K, 10000 kPa, x1 = 0.4	89.57 ± 0.54
334.13 K, 2000 kPa, x1 = 0.4	90.16 ± 0.57
352.61 K, 5000 kPa, x1 = 0.9	95.17 ± 0.58
354.08 K, 5000 kPa, x1 = 0.8	95.72 ± 0.58
354.53 K, 5000 kPa, x1 = 0.1	82.78 ± 0.5
355.25 K, 5000 kPa, x1 = 0.7	96.11 ± 0.58
355.71 K, 5000 kPa, x1 = 0.6	95.6 ± 0.58
355.86 K, 5000 kPa, x1 = 0.5	94.46 ± 0.58
355.92 K, 5000 kPa, x1 = 0.2	87.32 ± 0.54
356.11 K, 5000 kPa, x1 = 0.4	92.66 ± 0.57
356.17 K, 5000 kPa, x1 = 0.3	90.87 ± 0.56
376.69 K, 5000 kPa, x1 = 0.9	102.61 ± 0.64
377.42 K, 5000 kPa, x1 = 0.8	102.59 ± 0.64
377.92 K, 5000 kPa, x1 = 0.1	83.23 ± 0.52
377.99 K, 5000 kPa, x1 = 0.7	101.84 ± 0.64
378.34 K, 5000 kPa, x1 = 0.6	100.47 ± 0.63
378.47 K, 5000 kPa, x1 = 0.5	98.56 ± 0.6
378.64 K, 5000 kPa, x1 = 0.4	96.44 ± 0.59
378.77 K, 5000 kPa, x1 = 0.3	92.83 ± 0.58
378.78 K, 5000 kPa, x1 = 0.2	88.72 ± 0.54
424.2 K, 5000 kPa, x1 = 0.5	107.27 ± 0.65
424.22 K, 5000 kPa, x1 = 0.4	102.77 ± 0.64
424.24 K, 5000 kPa, x1 = 0.7	114.48 ± 0.7
424.36 K, 10000 kPa, x1 = 0.4	101.14 ± 0.61
424.4 K, 2000 kPa, x1 = 0.4	102.94 ± 0.64
424.42 K, 2000 kPa, x1 = 0.6	111.49 ± 0.69
424.47 K, 5000 kPa, x1 = 0.6	111.25 ± 0.69
424.53 K, 10000 kPa, x1 = 0.6	108.79 ± 0.69
424.54 K, 5000 kPa, x1 = 0.8	118.06 ± 0.73
424.59 K, 2000 kPa, x1 = 0.8	118.73 ± 0.73
424.59 K, 10000 kPa, x1 = 0.8	118.7 ± 0.73
424.7 K, 10000 kPa, x1 = 0.2	91.26 ± 0.56
424.77 K, 2000 kPa, x1 = 0.2	92.01 ± 0.56
424.89 K, 5000 kPa, x1 = 0.9	121.27 ± 0.74
424.97 K, 5000 kPa, x1 = 0.3	97.58 ± 0.6
425.05 K, 5000 kPa, x1 = 0.2	91.9 ± 0.56
425.68 K, 5000 kPa, x1 = 0.1	85.15 ± 0.52
437.16 K, 8500 kPa, x1 = 0.6	124.31 ± 0.77
471.84 K, 10000 kPa, x1 = 0.6	122.64 ± 0.77
471.87 K, 10000 kPa, x1 = 0.4	110.24 ± 0.69
472.32 K, 5000 kPa, x1 = 0.4	111.75 ± 0.69

— the NIST ThermoML archive (doi:10.1016/j.jct.2005.03.012)
